Experimental data taken from PubChem BioAssay (NCI).
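These data come from cells grown in 96-well plates and exposed to compound for 48 hours at five concentrations. At the TGI there is no net growth.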 Where a SMILES comes first, the peptide text is derived from it. Bridges are numbered along the chain shown (N, C = ends).

Legend:
Assay in all cases: NCI-60 cell line screen, 48 h
K-562 leukemia = tested on: K-562 leukemia
SF-539 CNS = tested on: SF-539 CNS
LOX IMVI melanoma = tested on: LOX IMVI melanoma
MDA-N = tested on: MDA-N
MDA-MB-435 = tested on: MDA-MB-435
SK-MEL-2 melanoma = tested on: SK-MEL-2 melanoma
OVCAR-8 ovarian = tested on: OVCAR-8 ovarian
RPMI-8226 leukemia = tested on: RPMI-8226 leukemia
786-0 renal = tested on: 786-0 renal
MCF7 breast = tested on: MCF7 breast
HOP-62 NSCLC = tested on: HOP-62 NSCLC

| Compound | TGI (K-562 leukemia) [µM] | TGI (SF-539 CNS) [µM] | TGI (LOX IMVI melanoma) [µM] | TGI (MDA-N) [µM] | TGI (MDA-MB-435) [µM] | TGI (SK-MEL-2 melanoma) [µM] | TGI (OVCAR-8 ovarian) [µM] | TGI (RPMI-8226 leukemia) [µM] | TGI (786-0 renal) [µM] | TGI (MCF7 breast) [µM] | TGI (HOP-62 NSCLC) [µM] |
| --- | --- | --- | --- | --- | --- | --- | --- | --- | --- | --- | --- |
| O=C(NNC(=O)c1ccncc1)C(=O)Nc1cc(Cl)c(Cl)cc1Cl | > 100 | > 100 | > 100 | > 100 | > 100 | > 100 | > 100 | > 100 | > 100 | > 100 | > 100 |
| O=Cc1c2c(cc3c1CC1(C3)Cc3cc4c(c(C=O)c3C1)CCC4)CCC2 | 63.7 | > 100 | 51.1 | > 100 | > 100 | 50.8 | > 100 | > 100 | > 100 | > 100 | 51.4 |
| O=C1CC(c2cccc([N+](=O)[O-])c2)C2(C(=O)NC(=S)NC2=O)C(c2cccc([N+](=O)[O-])c2)C1 (centres undefined) | > 100 | > 100 | 34 | > 100 | 66.2 | > 100 | 43.6 | > 100 | > 100 | 50.9 | > 100 |
| CC(C)(C)c1cc(C(C)(C)C)c(SC2OC(CO)C(O)C(O)C2O)c(O)c1O (centres undefined) | > 39.8 | 12.7 | 22.9 | 15.8 | 21 | 25 | 27.7 | 76.1 | 30.4 | > 34.2 | 33.9 |
| C#CCn1c(I)cc2c(c1=O)COC(=O)[C@]2(O)CC | > 100 | > 100 | > 100 | > 100 | > 100 | > 100 | > 100 | > 100 | > 100 | > 100 | > 100 |
| O=C(NC1=C(Cl)C(=O)c2ccccc2C1=O)C(=O)c1c(O)c2ccccc2oc1=O | > 100 | 11.1 | > 45.9 | 2.7 | 2.97 | 10.3 | 31 | 30.3 | 19 | 8.39 | 18.8 |
| O=C(NNC(=O)c1ccc(Cl)cc1NC(=O)C12CC3CC(CC(C3)C1)C2)c1ccc(Cl)cc1 | > 100 | 46.6 | 37.7 | 55.9 | 35.6 |  | > 100 | 38.4 | 56.1 | 87.5 | 44.4 |
| CCOC(=O)C1=C(N2CCCC2)C(=O)C(C(=O)OCC)C1 (centres undefined) | > 100 | > 100 | > 100 | > 100 | > 100 | > 100 | > 100 | > 100 | > 100 | > 100 | > 100 |
| C[C@@H]1C[C@@H]2OC(=O)[C@]3(C)[C@H]2[C@@H](OC3(C)O)[C@]2(C)C(=O)C=C[C@@H]12 (some centres undefined) | 2.69 | > 100 | 43 | 35.5 | 66.9 | 54.7 | > 100 | 17.7 | > 100 | 32.7 | > 100 |
| O=C(Oc1cncc(Cl)c1)c1cc2ccccc2sc1=O | > 100 | 57.9 | > 100 | > 100 | > 100 | 90.7 | > 100 | > 100 | > 100 | > 100 | > 100 |
| COC(=O)C1CCC(=O)NCCCCC(NC(=O)C(N)CC(=O)O)C(=O)N1 (stereo not drawn) (H-Asp-Lys-Glu-OMe; lactam 2-3; configuration not given here) | > 100 | > 100 | > 100 | > 100 | > 100 | > 100 | > 100 | > 100 | > 100 | > 100 | > 100 |
| Cc1cc2ccccc2oc(=O)/c1=N\Nc1ccccc1 | > 100 | > 100 | > 100 | > 100 | > 100 | > 100 | > 100 | > 100 | 97 | > 100 | 46.7 |
| COc1ccc(/C=C/C(=O)c2cc(CN(C)C)c(O)c(CN(C)C)c2)cc1 | 70.7 | > 100 | 31.9 | 67.1 | > 100 |  | > 100 | > 100 | > 100 | > 100 | 56.1 |
| COC(=O)[C@@H]1C=CCN1S(=O)(=O)c1ccc(C)cc1 | > 100 | > 100 | > 100 | > 100 | 39.2 | > 100 | > 100 | > 100 | > 100 | > 100 | > 100 |
| COC(=O)c1ccc(C)cc1C1CN=NC12Cc1cccc(C)c1C2=O (centres undefined) | 68.4 | > 100 | 63.9 | 70.9 | 37.9 | 63.8 | 47.1 | 49.8 | > 100 | > 100 | > 100 |
| CC(=O)OC1C2CCC3CC2C2(SCCS2)C31 (centres undefined) | > 100 | > 100 | > 100 | > 100 | > 100 | > 100 | > 100 | > 100 | > 100 | > 100 | > 100 |
| CC(C)=CCNc1ncnc2c1ncn2CCC(=O)O | > 100 | > 100 | > 100 | > 100 | > 100 |  | > 100 | > 100 | > 100 | > 100 | > 100 |
